Measurements as given in US9474740B2, “Ectoparasite control agent” (Nippon Soda Co., Ltd., priority 2013, dated 2016).

How the values were obtained:
[1] = test system: American dog mites (Dermacentor variabilis) in nymph stage; experiment: Acaricidal test of rodent (RAT) in vivo; conditions: Sprague-Dawley rat, topical 0.05 ml in acetone, effective component concentration of 1% or less (10 mg/ml), 48 hours after the treatment, read-out: efficacy (reduction % in the number of surviving mites)
Text: Evaluation of the test compounds can be performed by a method obtained by modifying the analysis method described in “J. Med. Entomol. 43 (3) 526-532 (2006)”. In the analysis method, other mite species (in references, described as a mite of Amblyomma americanum) can be also used, and, for example, other mite species such as a mite of Dermacentor variabilis can be also used. A mite-holding unit (which was configured of small size nipples, a crew cap with a vent, and a reinforcing rubber washer) was attached to the back of an adult Sprague-Dawley rat. After attaching the holding unit, 0.05 ml of a test compound dissolved in acetone was applied topically on the skin surface inside the holding unit. After leaving to stand for a sufficient period of time to evaporate the acetone, about 10 American dog mites (Dermacentor variabilis) in nymph stage, to which food was not given, were put into each holding unit. Three to five rats per treatment group were used. 48 hours after the treatment, the holding unit was removed, and the surviving mites and dead mites were counted. In the evaluation of efficacy, geometric mean calculation was used. First, the total number of surviving mites was converted by the natural logarithm transformation by adding 1 (Ln total number+1). That is, by adding 1 to each total number, the total number which was zero was adjusted. The geometric mean (GM) of the total number of mites in a treatment group was obtained by inverse-transforming the mean transformation value of the total number of treatment groups and subtracting 1. The non-treated control group was used for comparison with the groups in which the test compound was given for calculation of efficacy % (reduction % in the number of surviving mites). […] Efficacy [%]=[(survival mites GM number of control−survival mites GM number of treatment groups)/(survival mites GM number of control)×100

[2] = test system: Rhipicephalus sanguineus; experiment: Parasite extermination test of dog in vivo, R. sanguineus
Description: Each type of the test compounds was applied to four dogs. One day before treatment (−1 day) of the test compound, about 50 adults of Rhipicephalus sanguineus to which food was not given, per dog, were parasitized. It was estimated that 50% of the 50 ticks were male and 50% of the 50 ticks were female. Separately, the tested compound was dissolved in a mixed solvent consisting of 80% by volume of benzyl alcohol and 20% by volume of isopropyl myristate such that the concentration became 50 mg/ml, whereby a test solution was prepared. On zeroth day, several different spots of the interscapular region were treated with the test solution by “topical spot-on” such that the test compound was treated per 20 mg/kg per body weight of a dog. For comparison, a negative control was also prepared. In order to evaluate the treatment against the parasitized ticks, survival of the ticks were observed on the 2nd day (48 hours after the treatment). To evaluate the durability, on the 5th, 12th, 19th, and 28th day, 50 ticks to which food was not given, per dog, were parasitized again. On the 7th, 14th, 21 st, 30th and 35th day, 48 hours after each was parasitized, survival of the ticks and mites were observed, and the ticks and mites were removed from the dogs. The ticks were classified according to whether or not the ticks were attached, and the survival state was determined. In the evaluation of efficacy, the same geometric mean calculation as that in Test Example 2 was used. […] In addition, for Test Compound 1 to 32, the test compounds were treated per 5 mg/kg per body weight of an individual with respect to a dog.

[3] = test system: fleas (Ctenocephalides felis); experiment: Parasite extermination test of dog in vivo, C. felis; conditions: topical spot-on 20 mg/kg
Description: Each type of the test compounds was applied to four dogs. One day before treatment (−1 day) of the test compound, about 50 adults of Rhipicephalus sanguineus to which food was not given, per dog, were parasitized. It was estimated that 50% of the 50 ticks were male and 50% of the 50 ticks were female.
Separately, the tested compound was dissolved in a mixed solvent consisting of 80% by volume of benzyl alcohol and 20% by volume of isopropyl myristate such that the concentration became 50 mg/ml, whereby a test solution was prepared.
On zeroth day, several different spots of the interscapular region were treated with the test solution by “topical spot-on” such that the test compound was treated per 20 mg/kg per body weight of a dog. For comparison, a negative control was also prepared.
In addition, on the 12th and 28th day, 50 adult fleas (Ctenocephalides felis) to which food was not given were parasitized together.
On the 7th, 14th, 21 st, 30th and 35th day, 48 hours after each was parasitized, survival of the ticks and mites were observed, and the ticks and mites were removed from the dogs. The ticks were classified according to whether or not the ticks were attached, and the survival state was determined.
In the evaluation of efficacy, the same geometric mean calculation as that in Test Example 2 was used.

[4] = test system: American dog mites (Dermacentor variabilis); experiment: Parasite extermination test of dog in vivo, D. variabilis; conditions: topical spot-on 20 mg/kg, 35th day
Description: Each type of the test compounds was applied to four dogs. One day before treatment (−1 day) of the test compound, about 50 adults of Rhipicephalus sanguineus to which food was not given, per dog, were parasitized. It was estimated that 50% of the 50 ticks were male and 50% of the 50 ticks were female. Separately, the tested compound was dissolved in a mixed solvent consisting of 80% by volume of benzyl alcohol and 20% by volume of isopropyl myristate such that the concentration became 50 mg/ml, whereby a test solution was prepared. On zeroth day, several different spots of the interscapular region were treated with the test solution by “topical spot-on” such that the test compound was treated per 20 mg/kg per body weight of a dog. For comparison, a negative control was also prepared. Furthermore, on the 33rd day, 50 adult American dog mites (Dermacentor variabilis) to which food was not given were parasitized. On the 7th, 14th, 21 st, 30th and 35th day, 48 hours after each was parasitized, survival of the ticks and mites were observed, and the ticks and mites were removed from the dogs. The ticks were classified according to whether or not the ticks were attached, and the survival state was determined. In the evaluation of efficacy, the same geometric mean calculation as that in Test Example 2 was used. As the test compounds, 1-3, 1-5, 1-10, 1-28, 1-29, and 1-71 were used. Here, the test using American dog mites was performed on 1-28 and 1-71.

[5] = topical spot-on 20 mg/kg, 2nd day
[6] = topical spot-on 20 mg/kg, 7th day
[7] = topical spot-on 20 mg/kg, 14th day
[8] = topical spot-on 20 mg/kg, 21st day
[9] = topical spot-on 20 mg/kg, 30th day
[10] = 5 mg/kg per body weight, 2nd day
[11] = 5 mg/kg per body weight, 5th day

Row | SMILES | pest or weed control at up to 10000 µg/mL [1] [%] | average number of surviving parasites [2, 5] | efficacy (%) [2, 5] [%] | average number of surviving parasites [2, 6] | efficacy (%) [2, 6] [%] | average number of surviving parasites [2, 7] | efficacy (%) [2, 7] [%] | average number of surviving parasites [2, 8] | efficacy (%) [2, 8] [%] | average number of surviving parasites [2, 9] | efficacy (%) [2, 9] [%] | average number of surviving parasites ([3]; 14th day) | efficacy (%) ([3]; 14th day) | average number of surviving parasites ([3]; 30th day) | efficacy (%) ([3]; 30th day) | other results
1 | Cc1ccc(/N=C2\SC(C)(C)CC\C2=C/Sc2cccc(C)c2)cc1 [Compound 1-31] | ≥ 50 | – | – | – | – | – | – | – | – | – | – | – | – | – | – | –
2 | C=C1SC(=N\c2ccc(C)cc2)/C(=C/Sc2cccs2)C(C)C1(C)C (stereo not shown) [Compound 1-29] | ≥ 50 | 1.3 | 97.3 | 0 | 100 | 0 | 100 | 0 | 100 | 0 | 100 | 0 | 100 | 0 | 100 | –
3 | C=C1SC(=N\c2ccc(C)cc2)/C(=C/Sc2ccccc2)C(C)C1(C)C (stereo not shown) [Compound 1-28] | ≥ 50 | 0.25 | 99.3 | 0 | 100 | 0 | 100 | 0 | 100 | 1.8 | 97.8 | 0 | 100 | 0 | 100 | average number of surviving parasites [4]: 7.0; efficacy (%) [4]: 88.3%
4 | CC(C)=C1CC(C)C(=C\SCc2ccc(Cl)cc2)/C(=N/c2ccc(C)cc2)S1 (stereo not shown) [Compound 1-71] | ≥ 50 | 5.0 | 90 | 0 | 100 | 0 | 100 | 1.8 | 96.9 | 0 | 86.8 | 0 | 100 | 0 | 100 | average number of surviving parasites [4]: 9.8; efficacy (%) [4]: 80.3%
5 | Cc1ccc(/N=C2\SC(C)(C)CC\C2=C/Sc2ccccc2F)cc1 [Compound 1-32] | ≥ 50 | – | – | – | – | – | – | – | – | – | – | – | – | – | – | average number of surviving parasites [2, 10]: 0; efficacy (%) [2, 10]: (76.6%); average number of surviving parasites [2, 11]: 0; efficacy (%) [2, 11]: (100%)
6 | C=C1SC(=N\c2ccc(C)cc2)/C(=C/Sc2cccs2)CC1(C)C [Compound 1-10] | ≥ 50 | 0.5 | 98.9 | 0 | 100 | 0 | 100 | 0.5 | 99.5 | 4.3 | 95.4 | 0 | 100 | 0 | 100 | –
7 | C=C1SC(=N\c2ccc(C)cc2)/C(=C/Sc2ccccc2)CC12CCCCC2 [Compound 1-5] | ≥ 50 | 0 | 100 | 0 | 100 | 0 | 100 | 1.8 | 95.4 | 6.5 | 86.8 | 0 | 100 | 8.8 | 98.2 | –
8 | C=C1SC(=N\c2ccc(C)cc2)/C(=C/Sc2ccccc2)CC1(C)C [Compound 1-3] | ≥ 50 | 0.5 | 98.6 | 0 | 100 | 0 | 100 | 0 | 100 | 6.0 | 92.3 | 0 | 100 | 0 | 100 | –
